# According to patent publication US20070254891A1, “Crystalline forms of 4-(2-fluorophenyl)-6-methyl-2-(piperazin-1-yl)thieno[2,3-d]pyrimidine” (Dynogen Pharmaceuticals, Inc., priority 2006, published 2007):
# Test: Accelerated light stability study (Atlas Suntest CPS+ light box)
# Type: physicochemical
# Method: Purity analysis was performed on an Agilent HP1100 system equipped with a diode array detector and using Chemstation V9 software. Gradient, Reverse Phase methods (duration approximately 40 minutes) were used in a HPLC1 system. A Thermo-Electron Corporation HyPurity C18 5 um 150×4.6 mm column was used at 25° C. Test samples were made-up of 0.2 mg/ml of the compound in acetonitrile:water (1:1 v/v). 10 μl of sample was injected into the column. The flow rate through the column was 1 ml/min and the detection wavelength, bandwidth was 254,8 nm. Phase A was 0.1% phosphoric acid in water and Phase B was 0.1% phosphoric acid in acetonitrile. The mobile phase timetable is shown below in Table 2.
# Accelerated Light stability experiments were conducted using an Atlas Suntest CPS+light box. The light exposure was set to 550 W/m^2 and the run time was set to 168 hours (1 week). The chamber temperature and black standard temperature (which indicates how hot the test samples will become) were set to 25° C. The actual temperature in the sample chamber was 40° C.
# Form I and II were assessed using an Atlas Suntest CPS+ light box to determine the effect of their exposure to light over a period of 168 hours (1 week). The light exposure was set to 550 W/M^2. Samples were weighed into either open weighing boats covered by pyrex glass beakers, glass vials with open tops (no lid), or glass vials covered in Aluminum foil. In all instances, the material was spread out into an even, thin layer.
structure (smiles),measurement,setting,value
"Cc1cc2c(-c3ccccc3F)nc(N3CCNCC3)nc2s1.Cl [Form II, 4-(2-fluorophenyl)-6-methyl-2-(piperazin-1-yl)thieno[2,3-d]pyrimidine hydrochloride]",Rate of degradation relative to Form I,1 week at elevated light levels,about half the rate of Form I
same,Purity after 1 week light exposure,20 ml glass vial covered in Al foil with loose lid (control),99.9
same,Purity after 1 week light exposure,"20 ml glass vial, 550 W/m^2, 168 hours, hydrochloride",90.7
same,HPLC purity after accelerated light study,"one week, FIGS. 6A/6B (open weighing boats), hydrochloride",88.3%
same,Purity after 1 week light exposure,"open weighing boat, 550 W/m^2, 168 hours, hydrochloride",88.3
